Results taken from patent publication US10471025B2, “Compositions for use in treating parkinson's disease and related disorders” (Technophage, Investigação E Desenvolvimento Em …, priority 2015, dated 2019).
“Also recorded” adds a separate entry of the source. Counter-ions that a name gives are not always drawn. Like-named read-outs stand apart in the source and are kept apart here.

Legend:
[1] = cited from earlier work
[2] = system: 6-OHDA treated zebrafish larvae; test: Locomotor behavior rescue (total distance moved, number of jumps) in 6-OHDA zebrafish PD model; format: in vivo
Text: To model Parkinson ̆s disease (PD), a neurotoxin 6-OHDA (6-hyroxydopamine) based method was used in zebrafish and in mice. In this model, 6-OHDA-lesions induce motor manifestations in zebrafish and in mice, such as reduced locomotor ability, and the loss of dopaminergic neurons. Based on the 6-OHDA PD zebrafish model, compounds from a small molecules library were screened for rescue of the parkinsonian phenotype (Example 1, see below).
The screen was based on both the recovery of impaired locomotor behavior and dopaminergic neuronal loss.
Values were normalized for the mean of disease state in each experiment (disease=1). Each plot contains data from 3 independent experiments with a total of 24 larvae. As a control, zebrafish were treated with only the vehicle, ascorbic acid.
For these experiments, Tubingen (TU) wild-type zebrafish, a specific strain of wild-type zebrafish, were used.

6-OHDA mouse model [3] = test: Abnormal involuntary movements, 6-OHDA mice (Example 5); format: in vivo; conditions: 28 days post injection; 30 and 90 minutes after treatment
Protocol: This condition results in a range of involuntary movements that can be evaluated by video tracking analyses. […] Evaluations were performed during two independent trials, 30 and 90 minutes after treatment administration. […] Nonetheless, forelimb and orofacial involuntary movements are extremely hard to detect, and reading errors occur, considering the size of the animals. Total abnormal involuntary movements are the sum of all 4 different involuntary movements evaluated and is the parameter often reported in the literature.
As FIGS. 17A-17F show, abnormal involuntary movements were evaluated using the cylinder test 28 days post injection. […] Values mean ě SEM (n=5-8).

6-OHDA mouse model [4] = format: in vivo; conditions: for Gait test: maximum velocity, mean velocity, percentage of time resting or moving fast: tapentadol hydrochloride 8 or 15 mg/kg/day, hydrochloride
Protocol: That is, tapentadol hydrochloride C1 concentration dosage was increased to 8 mg/kg/day and tapentadol hydrochloride C3 concentration dosage was increased to 15 mg/kg/day. The gait test plan is illustrated in FIGS. 24A-24B.
To better observe the movement pattern of mice ̆s limbs, a new device was engineered similar to that used in a beam test, but with a closed corridor and a door. The apparatus was transparent with two home-cages at the extremities, one at the entrance that is transparent and another on the opposite end that is black. Each test was repeated 5 times and the 3 more consistent trials were selected for paw placement analysis. Data was recorded by 3 different cameras: on the bottom, top, and side of the corridor. Each camera allowed measurement of a different gait parameter. Specifically, the bottom camera allowed measurement, through the base of the support, of the hind paw distance and hind paw angle. The top camera allowed measurement of different parameters at distinct zones^—in the green area (most of the length of the apparatus), maximum and mean velocity, percentage of time resting/moving slow/moving fast, and time to the door were measured; the dark blue area provided a lag zone; and in the yellow area (area in front of the door), the permanence time before the door, mean velocity before the door, and latency to cross the door were measured. The side camera was used to analyze mice posture.

rabbit = conditions: oral administration; cited from earlier work
[5] = IV, rats; cited from earlier work
[6] = system: 6-OHDA treated zebrafish larvae; test: LD50 / lethality in the disease context of the zebrafish model
rat = conditions: cited from earlier work
healthy wild type mice [7] = test: Toxicity assay, welfare and necropsy (Example 6); conditions: 24 h
Protocol: Their behavior was evaluated with open field tests for 1 h after i.p. injection. After 24 h, animals were sacrificed and necropsy was performed
9 week old NMRI female mice were used for this assay. Animals were tested for their welfare after two intraperitoneal injections of the test agents using the open field test. Necropsy was done after cervical dislocation. […] Benserazide at 12 mg/kg was administered 30 minutes prior to administration of these compounds, in all groups. Saline was given to the control group.
After benserazide administration, animals were monitored in the open field for 30 minutes for habituation. […] 24 hours after administration of the compounds, the animals were sacrificed and necropsy performed.
For administration of the various agents to the animals, two 700 ? L injections were administered 30 minutes apart.

[8] = system: 6-OHDA treated zebrafish larvae; test: Freezing (duration of freezing periods, light/dark stimulus) in 6-OHDA zebrafish larvae; format: in vivo; conditions: tapentadol 48.5, stavudine 50, nabumetone 0.91 μM; L-Dopa treatment
Protocol: In the zebrafish model, the locomotor impairment was measured and related with bradykinesia in patients. Tests included evaluating ‘freezing_ in response to a light/dark stimulus. 6-OHDA induced larvae had fewer freezing episodes but spent longer periods in the frozen state. In previous studies, the duration of freezing episodes has been analyzed in PD patients. […] Nonetheless, it is an inhibitor of the neuronal dopamine transporter and since 6-OHDA needs DAT to enter the neuron and induce the disease, methylphenidate may be a false positive.
As FIGS. 9B-9C show, freezing recovery was tested using 7 candidate molecules at optimal concentrations, in an exemplary experiment with n=8 fish, and methylphenidate and amantadine at 25 ? M.

[9] = system: 6-OHDA treated zebrafish larvae; test: Rescue of Tyrosine hydroxylase (TH)-positive dopaminergic neurons in 6-OHDA zebrafish larvae; format: in vivo
Protocol: The 7 candidates also were tested in terms of rescue of dopaminergic neurons positive for Tyrosine hydroxylase (Th) in the substancia nigra pars compacta of the test animals. […] Results were normalized for healthy control values (healthy control=100% of neurons). As a control, zebrafish were treated with only the vehicle, ascorbic acid. ‘6-OHDA_ represents results in zebrafish receiving no treatment.
FIGS. 6E-6G show representative Z-projections of confocal stacks of whole-mount anti-TH immunohistochemistry in 6 days post-fertilization (dpf) of zebrafish larvae (age of the fish) control (FIG. 6E), 6-OHDA (FIG. 6F), and tapentadol treated-larvae (FIG. 6G).

healthy wild type mice [10] = test: Toxicity assay, open field test in healthy wild type mice (Example 6); format: in vivo, mouse; conditions: 1 h after i.p.; tapentadol C1 8.3 mg/kg in combination with L-Dopa 18 mg/kg
Text: Necropsy was done after cervical dislocation. […] Saline was given to the control group.

[11] = system: 6-OHDA treated zebrafish larvae; test: Co-administration with L-Dopa, total distance 6-OHDA larvae move; format: in vivo; conditions: hydrochloride; for Effect of co-administration with L-Dopa on locomotor recovery: total distance, L-Dopa 250 or 125 μM

CC[C@@H](c1cccc(O)c1)[C@@H](C)CN(C)C [tapentadol, tapentadol hydrochloride]
Plasma protein binding ([1]; all species tested including humans): 15-20%
Plasma protein binding ([1]; plasma): approximately 20%
Therapeutic window ([2]; 6-OHDA zebrafish larvae): 20 to 113 µM
Locomotor behavior rescue (total distance moved, number of jumps), confirmation of screen ([2]; 7 candidate molecules, 3 independent experiments): strong candidates
Optimal concentration ([2]; behavioral experiments and TH+ cell counts): 48.5 µM
Total distance travelled, difference between treated larvae and disease control ([2]; tapentadol 48.5, stavudine 50, nabumetone 0.456 and 0.91 μM, n=8 fish): ~200 mm
Number of jumps: concentration validated as recovering the 6-OHDA induced behavior ([2]; zebrafish, in vivo): 56.25 µM
Induction of abnormal involuntary movements (6-OHDA mouse model [3]): None of the treatments, tapentadol or stavudine of the combination, induced involuntary movements
Gait test: all parameters measured (6-OHDA mouse model [4]; 21 dpi, L-Dopa ON period): no significant improvement
Gait test: permanence time before the door, latency to cross the door, mean velocity before the door (6-OHDA mouse model [4]; 29 dpi, L-Dopa OFF period): behavioral recovery
Gait test: maximum velocity, mean velocity, percentage of time resting or moving fast (6-OHDA mouse model [4]; 29 dpi, L-Dopa OFF period, listed as Tapentadol hydrochloride): behavioral recovery
Gait test: maximum velocity, mean velocity, percentage of time resting or moving fast (6-OHDA mouse model [4]; 29 dpi, L-Dopa OFF period, listed as tapentadol hydrochloride): ameliorated
LD50 (rabbit): 3,200 mg/kg
Dose with suspected proconvulsion effect [5]: 6 mg/kg
LD50 ([6]; 6-OHDA disease-induced zebrafish larvae): 8079 | M
LD50 ([6]; 6-OHDA zebrafish larvae): 8,079 μM
LD50 (rat; intravenous administration, rats): 45 mg/kg
LD50 (rat; oral administration, rat): 980 mg/kg
Necropsy findings (healthy wild type mice [7]; tapentadol C1 8.3 mg/kg in combination with L-Dopa): Two of the three animals treated with tapentadol C1 concentration had a slight hyperemia in the small intestine
Necropsy findings (healthy wild type mice [7]; tapentadol C3 15 mg/kg in combination with L-Dopa): One of the three animals treated with tapentadol C3 concentration had an intestinal congestion
Duration of freezing periods, recovery vs 6-OHDA treated larvae [8]: not recovered
Neurorescue ([9]; TH+ neurons at optimal dose, p): Confirmed p < 0.055
Neuroprotective effect / recovery of TH+ neurons ([9]; at the optimal concentration of each molecule, hydrochloride): confirmed; also recorded: recovery was observed
Open field behavior (velocity, distance, time resting/moving) (healthy wild type mice [10]): slightly different behavior in three out of the four parameters analyzed
Tapentadol w L-Dopa: effectiveness with L-Dopa 250 relative to 125 ([11]; co-administration with L-Dopa 250 vs 125, listed as Tapentadol HCl): less and equally
Effect of co-administration with L-Dopa on locomotor recovery ([11]; listed as Tapentadol): not affected
Effect of co-administration with L-Dopa on locomotor recovery ([11]; listed as tapentadol hydrochloride): the same or improved
